Legend:
IL-6 = IL-6 production by non-stimulated human umbilical vein endothelial cells, multiplex protein measurement; assay type: cell-based; details: increasing concentration of atorvastatin (1-50 μM), 24 hours, FIG. 11A
Method: Human umbilical vein endothelial cells were obtained (Clonetics Cell Systems; Cambrex Bio Science Walkersville, Inc., Walkersville, Md.). Approximately 5×10^5 viable cells were seeded in endothelial cell growth-supplemented basal medium (EGM-2-endothelial cell medium-2; Cambrex Bio Science Walkersville, Inc.) and maintained at 37° C. under a 5% carbon dioxide atmosphere per manufacturer's protocol. The culture medium was changed 24 hours after seeding and every 48 hours thereafter until confluence. Cells were then treated with trypsin, seeded in a 48-well culture dish, and incubated under the conditions previously described. Cells used in this Example were from the third passage. […]
The culture-conditioned media protein content of epithelial neutrophil-activating peptide-78 (ENA-78), interleukin-8, (IL-8), monocyte chemotactic protein-1 (MCP-1), interleukin-6 (IL-6), interleukin-10 (IL-10), fibroblast growth factor (FGF), and granulocyte colony-stimulating factor (G-CSF) were measured by means of flow-based immunofluorescence multiplex detection (Fluorokine MAP Human Cytokine Panel; R&D Systems Inc., Minneapolis, Minn.) with the Luminex 100 IS platform (Luminex Corp., Austin, Tex.). […]

CXCL5 = CXCL5 gene expression in HUVECs, real-time RT-PCR normalized to GAPDH; assay type: cell-based, human
Method: Human umbilical vein endothelial cells (HUVECs) (Clonetics Cell Systems; Cambrex Bio Science Walkersville, Inc., Walkersville, USA) were cultured as previously described. Briefly, HUVECs between passes three and four were seeded at a density of 2.5×10^4 cells per cm^2 and cultured to 80% confluence with endothelial cell growth-supplemented medium (EGM-2-endothelial cell medium-2; Cambrex Bio Science Walkersville, Inc.). Once confluent, media was changed to serum free endothelial basal media (EBM-2-endothelial cell medium-2; Cambrex Bio Science Walkersville, Inc.) for 24 hours prior to treatment, in which EBM-2 media supplemented to a 2% FBS concentration was used. Treatments consisted of atorvastatin calcium (AT; LKT Laboratories Inc., St. […] All were dissolved in molecular grade water. All final DMSO concentrations were less then 0.1%. […] In experiments investigating the impact of AT on IL-1beta-stimulated ENA-78 production, HUVECs were pre-treated with AT followed by IL-1beta stimulation two hours later. […] In a separate set of experiments, cells were cultured with IL-1beta and AT in the presence or absence of mevalonate, FPP, and GGPP to determine whether AT inhibition of ENA-78 production was dependent on HMG-CoA reductase inhibition and subsequent downstream pathways. Cell culture supernates for all experiments were stored at -20° C. until analysis, which was performed within seven days. ENA-78 concentrations were measured and normalized to total protein content in cell culture supernates using cytometric immunofluorescence as previously described. Ribonucleic acid (RNA) was isolated using a commercial kit (RNeasy mini kit, Qiagen Inc., Valencia, USA). […] RNA quality was assessed by absorbance (Nanodrop, Nanodrop Technologies, Wilmington, USA). […] Statistical differences in normalized protein concentrations and gene expression levels were determined by one way ANOVA and post-hoc Tukey analysis. […]

Which “graded reduction of IL-6 production” value (IL-6) does the source give for `CC(C)c1c(C(=O)Nc2ccccc2)c(-c2ccccc2)c(-c2ccc(F)cc2)n1CC[C@@H](O)C[C@@H](O)CC(=O)O` [atorvastatin] here?
The value was 29-83%.

What about the “constitutive expression of CXCL5” value (CXCL5; AT alone, 24 hours, FIG. 17) of the same compound?
The value was “significantly lowered”.

What about the “CXCL5 expression compared to IL-1beta alone” value (CXCL5; pre-treated with 10 μM of AT followed by IL-1beta in two hours) of the same compound?
Its value is “no difference”.
